Molecular target: T1, PTP1B (Homo sapiens, UniProt P18031)
T1 construct: compared it with the nontarget PTP1B protein; endogenous in cells
T1 sequence (P18031 1-435): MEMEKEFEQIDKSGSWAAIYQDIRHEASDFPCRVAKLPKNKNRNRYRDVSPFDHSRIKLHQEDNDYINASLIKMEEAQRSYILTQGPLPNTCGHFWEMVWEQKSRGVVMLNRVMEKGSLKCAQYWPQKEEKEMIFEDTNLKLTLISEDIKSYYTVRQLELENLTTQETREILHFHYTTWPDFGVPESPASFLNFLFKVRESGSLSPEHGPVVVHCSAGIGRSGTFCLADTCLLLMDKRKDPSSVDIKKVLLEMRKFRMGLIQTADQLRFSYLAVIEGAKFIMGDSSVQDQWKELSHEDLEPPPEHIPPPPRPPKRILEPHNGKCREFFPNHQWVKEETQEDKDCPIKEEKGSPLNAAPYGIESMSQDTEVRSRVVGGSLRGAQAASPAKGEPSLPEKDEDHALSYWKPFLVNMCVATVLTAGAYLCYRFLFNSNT
Assay: Cellular thermal shift assay (CETSA), nontarget PTP1B immunoblot
Assay type: binding
Settings: 100 μM CNBCA, cell lysate
Excerpt: First, we used the cellular thermal shift assay (CETSA) to show whether CNBCA binds to endogenous full-length SHP2 under cellular contexts. The CETSA assay is based on the principle that specific inhibitors bind to a target protein and confer relative stability from heat-induced denaturation and precipitation when compared to a nontarget protein present in the same milieu.[34] Accordingly, we performed CETSA to test the effect of CNBCA on the SHP2 protein stability and compared it with the nontarget PTP1B protein as described in the materials and methods.
After heat treatment, supernatants were analyzed by immunoblotting (IB) for SHP2 and the nontarget phosphatase PTP1B. […] To provide semiquantitative data, band densities of both SHP2 and PTP1B were measured and presented as bar graph. […] On the other hand, the nontarget protein PTP1B was reduced to approximately 50% at 49 °C, to 25% at 55 °C, and to less than 10% at 58 °C (Figure 3B and D).
For the CETSA study, total protein extracts (TPE) prepared from two breast cancer cells, the triple-negative MDA-MB468 and the HER2-positive JIMT-1 cells, were used. Briefly, TPE from the two cell lines were cleared by centrifugation, mixed with CNBCA at 100 μM concentration (the maximum amount used in the IC50 studies), and incubated for 10 min at room temperature to allow binding. The mixture was then divided into 100 μL aliquots, treated with heat for 10 min at different temperatures, ranging from 37 to 64 °C that differ by 3 °C intervals, cooled on ice for 10 min, centrifuged at 20,000g for 20 min to remove precipitated proteins, and the supernatants analyzed by immunoblotting (IB) for SHP2 and the nontarget PTP, PTP1B. Aliquots that were mixed with CNBCA, but not treated with heat were used as positive controls for comparison.

CCCCCCCCCOc1ccc(-c2ccc(C(=O)O)cc2)cc1CCCC(=O)O [CNBCA, 3′-(3-carboxypropyl)-4′-(nonyloxy)-[1,1′-biphenyl]-4-carboxylic acid]
PTP1B remaining in solution (band density) (heat 49 °C 10 min): approximately 50%
PTP1B remaining in solution (band density) (heat 55 °C 10 min): 25%
PTP1B remaining in solution (band density) (heat 58 °C 10 min): less than 10%
